Measured values published in publication PMC13489962, “Small-molecule modulation of β-arrestins” (Nature, 2026).

Assays:
[1] = test system: βARR2 recruitment to β2V2R; assay: PathHunter βARR2 recruitment to β2V2R in U2OS cells; assay type: cell-based; details: 50 μM (recruitment), 25 μM (internalization); n = 1–2; Reviewer Fig. R2
Protocol: β-Arrestin recruitment to the agonist-activated receptor (β2V2R) was measured using the DiscoveRx PathHunter β-arrestin assay, which uses enzyme fragment complementation. […] Upon agonist-induced recruitment of βARR2 to β2V2R, the β-gal fragments complement to form a functional enzyme, generating a measurable chemiluminescent signal. The signal intensity correlates directly with the extent of βARR2 recruitment. U2OS cells co-expressing β2V2R and βARR2 were plated at a density of 25,000 cells per well in white, clear-bottom 96-well plates 24 h before treatment. On the day of the experiment, cells were treated with either a single dose (50 μM) or varying concentrations of a specific β-arrestin modulator or vehicle control in Hanks’ balanced salt solution (HBSS) (Sigma-Aldrich) with 20 mM HEPES (pH 7.4) and 0.05% BSA. Cells were incubated at 37 °C, 5% CO2, and about 100% relative humidity for about 30 min, followed by stimulation with either 10 nM Iso or a serial dilution of Iso for 60 min at 37 °C. After agonist stimulation, PathHunter reagents were added, and cells were incubated for another 60 min at ambient temperature. Luminescence signals were measured using a CLARIOstar microplate reader (BMG Labtech).

[2] = test system: βARR1 MCL site mutants coupling to pβ2V2R; assay: [3H]-Fen binding with βARR1 MCL site mutants; assay type: biochemical, Rattus norvegicus; details: mutations P131A, D135A, K138A, C140A and E283A
Protocol: The expression and purification of β-arrestins have been described previously[44],[62]–[64]. In brief, E. coli BL21 (DE3) pLysS cells (New England Biolabs: C2527I) carrying pGEX4T1-Rattus norvegicus βARR1 or βARR2 construct, with their C terminus truncated (at amino acid 393 or 394, respectively), were cultured in Terrific Broth (Teknova) medium at 37 °C. After OD600 reached 0.6–0.8, the cells were induced with 0.1 mM isopropyl-β-D-thiogalactopyranoside (IPTG) at 18 °C overnight. […] Eluted fractions were analysed by SDS–PAGE, pooled, concentrated using 30 kDa MWCO Amicon Ultra-15 Centrifugal Filter devices, flash-frozen in liquid nitrogen, and stored in aliquots at −80 °C. […] Protein concentrations for each protein were determined by ultraviolet absorption at 280 nm and extinction coefficients estimated using the ExPASy ProtParam tool[67].
To assess the effects of β-arrestin modulators on β-arrestin- or Gαs–βγ-promoted high-affinity agonist binding, [^3H]-Fen binding assays were performed using membranes from Sf9 cells expressing phosphorylated β2V2R (pβ2V2R) or β2AR[28]. […] Bound [^3H]-Fen was extracted overnight in scintillation fluid and quantified by scintillation counting. Specific binding was calculated by subtracting nonspecific from total binding.

C=C1C(=O)[C@]23[C@H](O)[C@H]1CC[C@H]2[C@@]12CO[C@]3(O)[C@@H](O)[C@@H]1C(C)(C)CC[C@@H]2O [Cmpd-5, (1S,4aR,5S,6S,6aR,9S,11aS,11bS,14R)-1,5,6,14-tetrahydroxy−4,4-dimethyl-8-methylenedecahydro-1H-6,11b-(epoxymethano)-6a,9-methanocyclohepta[a]naphthalen-7(8H)-one] was tested, and the “inhibition across a full Iso dose range, βarr2 recruitment and receptor internalization” value [1] was “robust” and the “effect of mutation on Cmpd-5 inhibition of βARR1 coupling” value [2] was “negligible effects”.
